Test results published in patent US20050171169A1, “Combination chemotherapy for helminth infections” (priority 2004, published 2005).

Legend:
[1] = mice and humans, literature; cited from earlier work
[2] = Single-dose pharmacokinetic study, serum levels of TIZ, TIZ-gluc and ABZSO (Example 4); assay type: in vivo; settings: non-infected Balb/c mice; single dose 1 mg ABZ or 3 mg/1 mg NTZ/ABZ
Procedure: A total of 120 6-week old non-infected Balb/c mice were divided into three treatment groups: group 1 (NTZ—30 mice), group 2 (ABZ—30 mice), group 3 (NTZ/ABZ—60 mice). They received a single dose of 3 mg NTZ (group 1), 1 mg ABZ (group 2) and 3 mg/1 mg of NTZ/ABZ (group 3) in a volume of 100 μl suspended in 0.5% CMC. At defined time points following inoculation, (0, 1, 2, 4, 6, 8, 12, 24 and 48 h), blood samples were obtained from three mice/group, and blood levels of tizoxanide (TIZ), tizoxanide-glucuronide (TIZ-gluc) and ABZSO were assayed.
TIZ and Tiz-gluc were extracted from mouse serum samples using protein precipitation with acetonitrile. The supernatant was evaporated and reconstituted in injection solvent before injection. Chromatographic separation was achieved on a C18 column (5 pm 70×2 mm). Detection was by a mass spectrometer with an ion spray ionization source. Negative ions were detected in multiple reaction monitoring mode (Q1=264 m/z and Q3=216.9 m/z for TIZ, and Q1=439.9 m/z and Q3=263.9 m/z for TIZ-gluc). The lower limits of quantitation were 0.05 μg/ml and 0.2 μg/ml for TIZ and TIZ-gluc, respectively. […]

[3] = tested on: E. multilocularis metacestodes; assay: Secondary infection with E. multilocularis metacestodes, chemotherapy starting at two months post infection (Example 2); assay type: in vivo, Echinococcus multilocularis; settings: Balb/c mice; treatment initiated 2 months p.i., daily for 35 days; vs CMC control (4.3±0.9 g)
Procedure: E. multilocularis metacestodes (isolate IM280) were maintained by serial transplantation passages through intraperitoneal (i.p.) injection in gerbils (Meriones unguiculatus). Animals were sacrificed at four to ten weeks p.i, and the parasite material was removed from the peritoneal cavity under aseptic conditions, placed into Hanks balanced salt solution (HBSS), and washed several times. Vesicle suspensions were prepared as described in Hemphill, A., and B. Gottstein. 1995. Immunology and morphology studies on the proliferation of in vitro cultivated Echinococcus multilocularis metacestodes. Parasitol. Res. 81: 605-614. Vesicles were washed once in HBSS, and the number of intact metacestodes in 50 ml HBSS was determined microscopically. […]
(§1) For assessments of secondary infections, parasite tissue was carefully removed from the peritoneal cavity, and the parasite weight was determined as described in: Dai, W. J., and B. Gottstein. […]
(§2) For serological and lymphocyte proliferation assays, blood was taken from euthanized mice by heart puncture, and total IgG-, as well as IgG1- and IgG2a-isotype levels against crude E. multilocularis extract (Faub-antigen) and vesicle fluid antigen, were determined according to: Dai, W. J., A. Hemphill, A. Waldvogel, K. Ingold, P. Deplazes, H. Mossmann, and B. Gottstein. […]

[4] = tested on: E. multilocularis metacestodes; assay: Secondary infection with E. multilocularis metacestodes, chemotherapy starting at the timepoint of infection (Example 1); assay type: in vivo, Echinococcus multilocularis; settings: Balb/c mice, i.p. 20 metacestodes; daily intragastric treatment from day of infection for 35 days; necropsy day 36; CMC group 0.23±0.05 g
Procedure: E. multilocularis metacestodes (isolate IM280) were maintained by serial transplantation passages through intraperitoneal (i.p.) injection in gerbils (Meriones unguiculatus). Animals were sacrificed at four to ten weeks p.i, and the parasite material was removed from the peritoneal cavity under aseptic conditions, placed into Hanks balanced salt solution (HBSS), and washed several times. Vesicle suspensions were prepared as described in Hemphill, A., and B. Gottstein. 1995. Immunology and morphology studies on the proliferation of in vitro cultivated Echinococcus multilocularis metacestodes. Parasitol. Res. 81: 605-614. Vesicles were washed once in HBSS, and the number of intact metacestodes in 50 ml HBSS was determined microscopically. The metacestode suspension was adjusted to 20 intact vesicles/[…], and was used for infection experiments immediately.
Six week old Balb/c mice were housed in a temperature-controlled light-cycle room with food and water ad libitum. The mice were separated into experimental groups of 10 animals each. Drug suspensions (30 mg/ml NTZ, 10 mg/ml ABZ, and 30 mg NTZ plus 10 mg ABZ/ml, respectively) were prepared in carboxymethylcellulose (CMC) 0.5% (w/v) in water. […]
as §1

[5] = tested on: E. multilocularis metacestode tissue; assay: Histology and transmission electron microscopy of metacestode tissue from treated mice (Example 5); assay type: in vivo, Echinococcus multilocularis; settings: for Ultrastructural alterations of metacestode tissue (TEM): tissue from treated infected mice vs CMC-control; for Histology of metacestode tissue: tissue from treated infected mice vs control
Procedure: For histological and transmission electron microscopy (TEM) analysis, tissue samples were fixed in 3% paraformaldehyde/1% glutaraldehyde in 100 mM sodium cacodylate buffer (pH 7.2) for 24 h at 4° C., and postfixed in 2% OsO4 in cacodylate buffer for 4 h at room temperature. The samples were then processed and embedded in Epon 812 epoxy resin as described previously in: Hemphill, A., and S. L. Croft. 1997. Electron microscopy in Parasitology. In: p. 227-268. M. Rogan (ed), Analytical Parasitology, Springer Verlag, Heidelberg. Sections of […] in thickness were used for histological examination, and ultrathin sections 80-100 nm for transmission electron microscopy. Sections were loaded onto 300-mesh copper grids, and were contrasted with uranyl acetate and lead citrate as described previously in: Hemphill, A., and S. L. Croft. 1997. Electron microscopy in Parasitology. In: p. 227-268. M. Rogan (ed), Analytical Parasitology, Springer Verlag, Heidelberg. Specimens were viewed on a Phillips 300 transmission electron microscope operating at 60 kV.
Because it was not possible to investigate alterations of the actual parasite tissue on the germinal layer using histology, transmission electron microscopy was performed on sections obtained from the same tissue blocks. For evaluating the ultrastructural changes occurring during drug treatments, it is important to note that the process of tissue damage was not uniform, as it progressed at different rates in different metacestode vesicles. However, within a single metacestode, damage was rather homogenous. Therefore, a large number of different metacestodes, and as a consequence, different areas of a tissue block, were investigated in order to show a complete picture of the tissue alterations induced by ABZ, NTZ, and NTZ/ABZ-treatments.

E. multilocularis eggs = assay: Primary infection with E. multilocularis eggs, chemotherapy starting at two months post infection (Example 3); assay type: in vivo, Echinococcus multilocularis; settings: Balb/c mice, 2000 eggs intragastric; NTZ from 2 months p.i., daily for 35 days; infection control 5 lesions/mouse
From the text: Infective E. multilocularis eggs were isolated from fox intestinal tissue as described (Pater, C., V. Muller, S. Harraga, M. Liance, V. Godot, J. P. Carbillet, D. Meillet, T. Romig, and D. A. Vuitton. 1998). Intestinal and systemic humoral immunological events in the susceptible Balb/C mouse strain after oral administration of Echinococcus multilocularis eggs. Parasite Immunol. 20: 623-9). The infectivity of this batch of eggs was pre-determined by titration-infection experiments in mice, and an infection dose of 2000 eggs was used.
Six week old Balb/c mice were housed in a temperature-controlled light-cycle room with food and water ad libitum. The mice were separated into experimental groups of 10 animals each. […]
For analysis of primary infection, the entire liver was removed, and lesion numbers were determined as described: Siles-Lucas, M., M. Merli, U. Mackenstedt and B. Gottstein 2003. […]
as §2

[6] = Solubility of NTZ in solvents; assay type: physicochemical
[7] = Oral absorption of NTZ (general statement)

For `CCCSc1ccc2nc(NC(=O)OC)[nH]c2c1` [ABZ], which “Time after which ABZSO disappears following ABZ uptake” value [1] is on record?
The value was at most 10 h.

And the “ABZSO serum concentration at 12 h” value [2]?
The value was “zero”.

What about the “Reduction in parasite weight (in words)” value [3] of the same compound?
The value was “significant reduction in parasite weight”.

What about the Parasite weight [4] of the same compound?
The Parasite weight was 0.08 ± 0.01 g.

What about the “Ultrastructural alterations of metacestode tissue (TEM)” value [5] of the same compound?
Its value is “parasite tissue was mostly reduced to only the tegument”.

And the “Histology of metacestode tissue” value [5]?
Its value is “limited destructive effect”.

Which “Number of liver lesions (means)” value (E. multilocularis eggs) does the source give for `CC(=O)Oc1ccccc1C(=O)Nc1ncc([N+](=O)[O-])s1` [NTZ, 2-(acetolyloxy)-N-(5-nitro-2-thiazolyl)benzamide] here?
Its value is 2.2 lesions/mouse.

And the solubility ([6]; DMSO, organic solvent or mixture)?
Its solubility is at least 2000 µg/mL.

And the “Solubility in acetic acid” value ([6]; acetic acid)?
The value was “poorly soluble”.

And the Solubility in acetone ([6]; acetone)?
Its Solubility in acetone is “fairly soluble”.

And the Solubility in chloroform ([6]; chloroform)?
Its Solubility in chloroform is “poorly soluble”.

What about the Solubility in dioxane ([6]; dioxane) of the same compound?
The Solubility in dioxane was “fairly soluble”.

And the Solubility in ethanol ([6]; ethanol)?
Its Solubility in ethanol is “poorly soluble”.

What about the Solubility in ether ([6]; ether) of the same compound?
The Solubility in ether was “very poorly soluble”.

What about the “Solubility in methyl benzene” value ([6]; methyl benzene) of the same compound?
The value was “very poorly soluble”.

And the Solubility in pyridine ([6]; pyridine)?
Its Solubility in pyridine is “easily soluble”.

And the Solubility in water ([6]; water)?
Its Solubility in water is “very poorly soluble”.

What about the “Reduction in parasite weight (in words)” value [3] of the same compound?
Its value is “not statistically significant”.

What about the Oral absorption [7] of the same compound?
The Oral absorption was “easily absorbed orally”.

What about the Parasite weight [4] of the same compound?
The Parasite weight was 0.17 ± 0.05 g.

What about the “Ultrastructural alterations of metacestode tissue (TEM)” value [5] of the same compound?
The value was “rather heterogeneous morphological features”.

And the “Histology of metacestode tissue” value [5]?
The value was “limited destructive effect”.
